This assay deals with small cuts and/or abrasions. The experiment in a line: topical application of epinephrine compositions to small cuts and/or abrasions. The assay is classed as in vivo. The note with it: compositions containing from about 0.001 mg/ml to about 2.5 mg/ml, applied topically.
Setting [1] is: compared with wounds untreated or treated with conventional methods.

As for `CNC[C@H](O)c1ccc(O)c(O)c1` [epinephrine], the “scab formation on treated skin areas” value (assessed visually) was “no scabs were formed visually”. Under setting [1], the control of bleeding result is given as “faster control of bleeding” and the “healing of small cuts and/or abrasions” value is recorded as “promoted healing of small cuts and/or abrasions”.

(Values after patent publication US8969331B2, “Treatment of skin and mucosal superficial wounds using adrenergic receptor agonists” (priority 2008, dated 2015).)
